Details: Liquid

CCCCn1cc[n+](C)c1C.F[P-](F)(F)(F)(F)F [1-butyl-2,3-dimethylimidazolium hexafluorophosphate]
mass density [kg/m3]
Details	313.15 K	323.15 K	333.15 K	343.15 K	353.15 K	363.15 K	373.15 K	383.15 K	393.15 K
100 kPa	1339.6	1330.9	1321.9	1313.5	1305.4	1297.6	1290.6	1283.4	1276.1
1000 kPa	1340	1331.4	1322.4	1314.1	1306	1298.2	1291.2	1284	1276.8
2000 kPa	1340.7	1331.9	1323	1314.6	1306.6	1298.8	1291.9	1284.7	1277.4
3000 kPa	1341.2	1332.5	1323.5	1315.2	1307.2	1299.4	1292.5	1285.3	1278.1
4000 kPa	1341.6	1333.1	1324.1	1315.8	1307.8	1300.1	1293.2	1286	1278.8
5000 kPa	1342.1	1333.6	1324.6	1316.3	1308.3	1300.7	1293.8	1286.6	1279.4
10000 kPa	1344.6	1336.2	1327.2	1319.1	1311.1	1303.6	1296.7	1289.7	1282.6

CCCCn1cc[n+](C)c1.F[B-](F)(F)F [1-butyl-3-methylimidazolium tetrafluoroborate]
mass density [kg/m3]
Details	100 kPa	1000 kPa	2000 kPa	3000 kPa	4000 kPa	5000 kPa	10000 kPa
293.15 K	1206.9	1207.3	1207.7	1208.2	1208.7	1209.1	1211.3
303.15 K	1198.6	1199.1	1199.6	1200.1	1200.7	1201.1	1203.5
313.15 K	1190.8	1191.3	1191.8	1192.2	1192.7	1193.2	1195.5
323.15 K	1183	1183.5	1184	1184.5	1185	1185.5	1187.8
333.15 K	1175.8	1176.3	1176.9	1177.4	1177.9	1178.4	1181
343.15 K	1168.4	1168.9	1169.3	1169.8	1170.3	1170.8	1173.1
353.15 K	1161.3	1161.8	1162.4	1163	1163.5	1164.1	1166.6
363.15 K	1154.7	1155.3	1155.8	1156.4	1156.9	1157.5	1160.1
373.15 K	1148.2	1148.8	1149.3	1149.9	1150.4	1151	1153.6
383.15 K	1142	1142.5	1143.1	1143.7	1144.3	1144.8	1147.6
393.15 K	1136.1	1136.7	1137.3	1137.9	1138.4	1139	1141.9

CCCCn1cc[n+](C)c1.O=S(=O)([O-])C(F)(F)F [1-butyl-3-methylimidazolium trifluoromethanesulfonate]
mass density [kg/m3]
Details	100 kPa	1000 kPa	2000 kPa	3000 kPa	4000 kPa	5000 kPa	10000 kPa
293.15 K	1306.1	1306.6	1307.1	1307.7	1308.2	1308.8	1311.5
303.15 K	1296.6	1297.1	1297.7	1298.3	1298.9	1299.5	1302.3
313.15 K	1287.6	1288.1	1288.7	1289.3	1289.9	1290.5	1293.3
323.15 K	1278.7	1279.3	1280	1280.7	1281.3	1282	1285
333.15 K	1270.5	1271.1	1271.7	1272.4	1273.1	1273.8	1276.9
343.15 K	1262.5	1263.1	1263.8	1264.5	1265.2	1265.8	1269.1
353.15 K	1254	1254.7	1255.3	1256	1256.7	1257.4	1260.7
363.15 K	1246.8	1247.5	1248.3	1249	1249.7	1250.4	1253.8
373.15 K	1239.6	1240.3	1241.1	1241.8	1242.5	1243.2	1246.6
383.15 K	1232.4	1233.1	1233.9	1234.6	1235.4	1236.1	1239.7
393.15 K	1225.3	1226.1	1226.8	1227.6	1228.4	1229.1	1232.7

CCCCCCn1cc[n+](C)c1.F[P-](F)(F)(F)(F)F [1-hexyl-3-methylimidazolium hexafluorophosphate]
mass density [kg/m3]
Details	100 kPa	1000 kPa	2000 kPa	3000 kPa	4000 kPa	5000 kPa	10000 kPa
293.15 K	1299.8	1300.3	1300.8	1301.4	1301.9	1302.4	1304.9
303.15 K	1290.6	1291.1	1291.7	1292.2	1292.7	1293.2	1295.8
313.15 K	1281.5	1282	1282.6	1283.1	1283.7	1284.3	1287
323.15 K	1272.7	1273.2	1273.9	1274.5	1275	1275.6	1278.5
333.15 K	1264.2	1264.8	1265.4	1266	1266.6	1267.3	1270.3
343.15 K	1256.1	1256.7	1257.3	1258	1258.6	1259.2	1262
353.15 K	1248	1248.6	1249.2	1249.9	1250.5	1251.2	1254.2
363.15 K	1240.6	1241.2	1242	1242.6	1243.3	1244	1247.2
373.15 K	1233.4	1234.1	1234.9	1235.6	1236.3	1237	1240.3
383.15 K	1226.4	1227.2	1227.9	1228.7	1229.4	1230.1	1233.6
393.15 K	1219.4	1220.1	1220.9	1221.7	1222.5	1223.3	1227

CCCCCCCC[n+]1ccn(C)c1.F[B-](F)(F)F [1-methyl-3-octylimidazolium tetrafluoroborate]
mass density [kg/m3]
Details	100 kPa	1000 kPa	2000 kPa	3000 kPa	4000 kPa	5000 kPa	10000 kPa
293.15 K	1108.7	1109.1	1109.6	1110	1110.5	1110.9	1113.1
303.15 K	1100.7	1101.1	1101.6	1102.1	1102.6	1103.1	1105.4
313.15 K	1092.9	1093.4	1093.9	1094.4	1094.9	1095.4	1097.9
323.15 K	1085.4	1085.9	1086.4	1087	1087.5	1088	1090.6
333.15 K	1078.2	1078.7	1079.3	1079.8	1080.3	1080.9	1083.5
343.15 K	1071.4	1072	1072.5	1073.1	1073.7	1074.2	1076.9
353.15 K	1064.7	1065.2	1065.8	1066.4	1067	1067.6	1070.3
363.15 K	1058.6	1059.1	1059.8	1060.4	1061	1061.6	1064.4
373.15 K	1052.4	1053	1053.7	1054.3	1054.9	1055.5	1058.5
383.15 K	1046.6	1047.2	1047.9	1048.5	1049.2	1049.8	1052.9
393.15 K	1040.9	1041.5	1042.1	1042.8	1043.4	1044.1	1047.2

CCCCCCCC[n+]1ccn(C)c1.F[P-](F)(F)(F)(F)F [1-octyl-3-methylimidazolium hexafluorophosphate]
mass density [kg/m3]
Details	100 kPa	1000 kPa	2000 kPa	3000 kPa	4000 kPa	5000 kPa	10000 kPa
293.15 K	1242.4	1242.9	1243.5	1244.1	1244.6	1245.1	1247.8
303.15 K	1233.8	1234.4	1235	1235.6	1236.1	1236.7	1239.5
313.15 K	1225.3	1225.9	1226.5	1227.1	1227.7	1228.3	1231.1
323.15 K	1217.6	1218.2	1218.8	1219.4	1220	1220.6	1223.4
333.15 K	1209.1	1209.7	1210.3	1211	1211.6	1212.2	1215.1
343.15 K	1201	1201.6	1202.3	1203	1203.6	1204.3	1207.4
353.15 K	1193.6	1194.3	1195	1195.7	1196.3	1197.1	1200.3
363.15 K	1186.2	1186.9	1187.6	1188.3	1189	1189.7	1193
373.15 K	1179.2	1179.9	1180.6	1181.3	1182	1182.7	1186.1
383.15 K	1172.7	1173.5	1174.2	1174.9	1175.6	1176.3	1179.8
393.15 K	1166	1166.8	1167.5	1168.3	1169.1	1169.8	1173.5

— the NIST ThermoML archive (doi:10.1021/je060247x)
